Results from US20170152226A1, “FUNCTIONALISED AND SUBSTITUTED INDOLES AS ANTI-CANCER AGENTS” (Novogen Ltd., priority 2014, published 2017).
Where two headings read alike, the source gives them in different places.

Tests used:
Test in all cases: Anti-proliferative activity, cell-titre luminescent viability assay
Assay type in all cases: cell-based
PC3 = conditions: Homo sapiens, read-out: IC50 Prostate PC3
Experimental: (§1) The ability of compounds 3501-3540 and 3542-3545 to inhibit the proliferation of cancer cells representative of neuroblastoma, melanoma, prostate cancer, colorectal cancer, non-small cell lung carcinoma, and triple negative breast cancer was assessed. Briefly, a pre-determined number of cells as calculated from cell growth assays for each of the cell lines employed were seeded into their respective culture medium (using ATCC culture parameters—http://www.atcc.org) and cultured for 24 hours at 37° C. and 5% CO2 in 96-well culture plates. Once attached, each cell line was then exposed to increasing concentrations of each respective analogue (0.03, 0.3, 3 and 30 μM for compounds in Table 1; 0.1, 0.3, 1, 3, 10 and 30 μM for compounds in Table 2), cultured for a further 72 hours and exposed to cell-titre luminescent reagent (100 μL/well) for a further 30 min) to assess for cell viability. Luminescence was captured using an EnVision multilabel reader and the data for each analogue concentration was normalized, as a percentage, to the no treatment control. For compounds 3501, 3503, 3505-08, 3512-18, 3520, 3522-24 and 3531-36, semi-log plots of Percent of Control versus concentration were prepared and IC50 determined using linear regression analysis. For compounds 3502, 3504, 3509-11, 3519, 3521, 3525-30, 3537-40 and 3542-45, cell viability was normalized to control (vehicle alone) and dose-response curves, and half maximal effective concentration (EC50) values were determined using Graph Pad Prism 6 (nonlinear regression sigmoidal dose-response variable slope).

DU145 = conditions: Homo sapiens, read-out: IC50 Prostate DU145
Experimental: as §1

SK-Mel-28 = conditions: Homo sapiens, SK-MEL-28, 72 hours, read-out: IC50 Melanoma SK-Mel-28
Experimental: as §1

CaCo2 = conditions: read-out: IC50 Colorectal CaCo2
Experimental: as §1

MDA-MB-231 = conditions: Homo sapiens, read-out: IC50 Breast MDA-MB-231
Experimental: as §1

SK-N-SH = conditions: Homo sapiens, SK-N-SH, read-out: IC50 Neuroblastoma SK-N-SH
Experimental: as §1

A549 = conditions: Homo sapiens, read-out: IC50 Lung (NSLC) A549
Experimental: as §1

[1] = PC-3, 72 h, 0.03, 0.3, 3 and 30 μM, linear regression of semi-log plots
[2] = DU-145, 72 h, 0.03, 0.3, 3 and 30 μM, linear regression of semi-log plots
[3] = 0.03, 0.3, 3 and 30 μM, linear regression of semi-log plots
[4] = Homo sapiens, Caco-2, 72 h, 0.03, 0.3, 3 and 30 μM, linear regression of semi-log plots
[5] = MDA-MB-231, 72 h, 0.03, 0.3, 3 and 30 μM, linear regression of semi-log plots
[6] = 72 h, 0.03, 0.3, 3 and 30 μM, linear regression of semi-log plots
[7] = A549, 72 h, 0.03, 0.3, 3 and 30 μM, linear regression of semi-log plots
[8] = PC-3, 72 h, 0.1, 0.3, 1, 3, 10 and 30 μM, nonlinear regression sigmoidal dose-response (EC50)
[9] = DU-145, 72 h, 0.1, 0.3, 1, 3, 10 and 30 μM, nonlinear regression sigmoidal dose-response (EC50)
[10] = 0.1, 0.3, 1, 3, 10 and 30 μM, nonlinear regression sigmoidal dose-response (EC50)
[11] = Homo sapiens, Caco-2, 72 h, 0.1, 0.3, 1, 3, 10 and 30 μM, nonlinear regression sigmoidal dose-response (EC50)
[12] = MDA-MB-231, 72 h, 0.1, 0.3, 1, 3, 10 and 30 μM, nonlinear regression sigmoidal dose-response (EC50)
[13] = 72 h, 0.1, 0.3, 1, 3, 10 and 30 μM, nonlinear regression sigmoidal dose-response (EC50)
[14] = A549, 72 h, 0.1, 0.3, 1, 3, 10 and 30 μM, nonlinear regression sigmoidal dose-response (EC50)

| SMILES | IC50 (PC3; [1]) | IC50 (DU145; [2]) | IC50 (SK-Mel-28; [3]) | IC50 (CaCo2; [4]) | IC50 (MDA-MB-231; [5]) | IC50 (SK-N-SH; [6]) | IC50 (A549; [7]) | IC50 (PC3; [8]) | IC50 (DU145; [9]) | IC50 (SK-Mel-28; [10]) | IC50 (CaCo2; [11]) | IC50 (MDA-MB-231; [12]) | IC50 (SK-N-SH; [13]) | IC50 (A549; [14]) | IC50 (CaCo2; 72 hours, 0.03, 0.3, 3 and 30 μM, linear regression of semi-log plots) |
| --- | --- | --- | --- | --- | --- | --- | --- | --- | --- | --- | --- | --- | --- | --- | --- |
| Cc1c(C)n(CCCN2CCN(C)CC2)c2ccc(Nc3cccc(C(=O)N4CCN(CCc5ccccc5)CC4)c3)cc12 [Compound 3518, (3-((2,3-dimethyl-1-(3-(4-methylpiperazin-1-yl)propyl)-1H-indol-5-yl)amino)phenyl)(4-phenethylpiperazin-1-yl)methanone] | 4.1 µM | 3.2 µM | 2.4 µM | 2.5 µM | 2.1 µM | 2.3 µM | 3 µM |  |  |  |  |  |  |  |  |
| Cc1c(C)n(CCCN2CCN(C)CC2)c2ccc(Cc3ccc(C(=O)N4CCN(CCc5ccc(F)cc5)CC4)cc3)cc12 [Compound 3519, (4-((2,3-dimethyl-1-(3-(4-methylpiperazin-1-yl)propyl)-1H-indol-5-yl)methyl)phenyl)(4-(4-fluorophenethyl)piperazin-1-yl)methanone] |  |  |  |  |  |  |  | 4.9 µM | 4.3 µM | 2.5 µM | 5.6 µM | 5 µM | 2.6 µM | 4.4 µM |  |
| Cc1c(C)n(CCCN2CCN(C)CC2)c2ccc(Cc3ccc(C(=O)N4CCN(CCc5ccc6c(c5)OCO6)CC4)cc3)cc12 [Compound 3521, (4-(2-(benzo[d][1,3]dioxol-5-yl)ethyl)piperazin-1-yl)(4-((2,3-dimethyl-1-(3-(4-methylpiperazin-1-yl)propyl)-1H-indol-5-yl)methyl)phenyl)methanone] |  |  |  |  |  |  |  | 6.3 µM | 5.7 µM | 4.1 µM | 6 µM | 6.6 µM | 4.2 µM | 5.9 µM |  |
| Cc1c(C)n(CCCN2CCN(C)CC2)c2ccc(Cc3ccc(C(=O)N4CCN(CCc5cccc(F)c5)CC4)cc3)cc12 [Compound 3522, (4-((2,3-dimethyl-1-(3-(4-methylpiperazin-1-yl)propyl)-1H-indol-5-yl)methyl)phenyl)(4-(3-fluorophenethyl)piperazin-1-yl)methanone] | 2.5 µM | 2.4 µM | 1 µM | 3 µM | 1.3 µM | 2 µM | 1.6 µM |  |  |  |  |  |  |  |  |
| COc1cccc(CCN2CCN(C(=O)c3ccc(Cc4ccc5c(c4)c(C)c(C)n5CCCN4CCN(C)CC4)cc3)CC2)c1 [Compound 3523, (4-((2,3-dimethyl-1-(3-(4-methylpiperazin-1-yl)propyl)-1H-indol-5-yl)methyl)phenyl)(4-(3-methoxyphenethyl)piperazin-1-yl)methanone] | 2.4 µM | 2.1 µM | 0.8 µM | 3.1 µM | 1.1 µM | 2.1 µM | 1.4 µM |  |  |  |  |  |  |  |  |
| Cc1c(C)n(CCCN2CCN(C)CC2)c2ccc(Cc3ccc(C(=O)N4CCN(CCc5ccccc5)CC4)cc3)cc12 [Compound 3524, (4-((2,3-dimethyl-1-(3-(4-methylpiperazin-1-yl)propyl)-1H-indol-5-yl)methyl)phenyl)(4-phenethylpiperazin-1-yl)methanone] | 0.9 µM | 1.8 µM | 1.1 µM | 1.7 µM | 1.1 µM | 1.4 µM | 0.9 µM |  |  |  |  |  |  |  |  |
| Cc1c(C)n(CCCN2CCN(C)CC2)c2ccc(Oc3ccc(C(=O)N4CCN(CCc5ccc(F)cc5)CC4)cc3)cc12 [Compound 3525, (4-((2,3-dimethyl-1-(3-(4-methylpiperazin-1-yl)propyl)-1H-indol-5-yl)oxy)phenyl)(4-(4-fluorophenethyl)piperazin-1-yl)methanone] |  |  |  |  |  |  |  | 4.5 µM | 4.1 µM | 1.7 µM | 4.1 µM | 4.3 µM | 1.9 µM | 3.8 µM |  |

Now from value to molecule:

| IC50 (PC3; [1]) | IC50 (DU145; [2]) | IC50 (SK-Mel-28; [3]) | IC50 (CaCo2; [4]) | IC50 (MDA-MB-231; [5]) | IC50 (SK-N-SH; [6]) | IC50 (A549; [7]) | IC50 (PC3; [8]) | IC50 (DU145; [9]) | IC50 (SK-Mel-28; [10]) | IC50 (CaCo2; [11]) | IC50 (MDA-MB-231; [12]) | IC50 (SK-N-SH; [13]) | IC50 (A549; [14]) | IC50 (CaCo2; 72 hours, 0.03, 0.3, 3 and 30 μM, linear regression of semi-log plots) | SMILES |
| --- | --- | --- | --- | --- | --- | --- | --- | --- | --- | --- | --- | --- | --- | --- | --- |
|  |  |  |  |  |  |  | 15.6 µM | 9 µM | 4.8 µM | 5.3 µM | 13.4 µM | 4.8 µM | 3 µM |  | COc1ccc(CCN2CCN(C(=O)c3ccc(Oc4ccc5c(c4)c(C)c(C)n5CCCN4CCN(C)CC4)cc3)CC2)cc1 [Compound 3526] |
|  |  |  |  |  |  |  | 7.2 µM | 4.5 µM | 4.1 µM | 4.1 µM | 4.8 µM | 3.2 µM | 5 µM |  | Cc1c(C)n(CCCN2CCN(C)CC2)c2ccc(Oc3ccc(C(=O)N4CCN(CCc5ccc6c(c5)OCO6)CC4)cc3)cc12 [Compound 3527, (4-(2-(benzo[d][1,3]dioxol-5-yl)ethyl)piperazin-1-yl)(4-((2,3-dimethyl-1-(3-(4-methylpiperazin-1-yl)propyl)-1H-indol-5-yl)oxy)phenyl)methanone] |
|  |  |  |  |  |  |  | 7.3 µM | 5.2 µM | 3.8 µM | 4.6 µM | 5.9 µM | 4.3 µM | 6.6 µM |  | Cc1c(C)n(CCCN2CCN(C)CC2)c2ccc(Oc3ccc(C(=O)N4CCN(CCc5cccc(F)c5)CC4)cc3)cc12 [Compound 3528] |
|  |  |  |  |  |  |  | 4.8 µM | 4.2 µM | 2.4 µM | 4.2 µM | 4.5 µM | 2 µM | 4.4 µM |  | COc1cccc(CCN2CCN(C(=O)c3ccc(Oc4ccc5c(c4)c(C)c(C)n5CCCN4CCN(C)CC4)cc3)CC2)c1 [Compound 3529] |
|  |  |  |  |  |  |  | 4.8 µM | 4.5 µM | 3.9 µM | 4.3 µM | 2.1 µM | 1.6 µM | 2.4 µM |  | Cc1c(C)n(CCCN2CCN(C)CC2)c2ccc(Oc3ccc(C(=O)N4CCN(CCc5ccccc5)CC4)cc3)cc12 [Compound 3530] |
| 4.6 µM | 3.9 µM | 2.8 µM | 4.2 µM | 3.5 µM | 3.4 µM | 3.9 µM |  |  |  |  |  |  |  |  | Cc1c(C)n(CCCN2CCN(C)CC2)c2ccc(Nc3ccc(C(=O)N4CCN(CCc5ccc(F)cc5)CC4)cc3)cc12 [Compound 3531, (4-((2,3-dimethyl-1-(3-(4-methylpiperazin-1-yl)propyl)-1H-indol-5-yl)amino)phenyl)(4-(4-fluorophenethyl)piperazin-1-yl)methanone] |
| 4.2 µM | 4 µM | 2.7 µM |  | 1.9 µM | 2.3 µM | 2.2 µM |  |  |  |  |  |  |  | 3.1 µM | COc1ccc(CCN2CCN(C(=O)c3ccc(Nc4ccc5c(c4)c(C)c(C)n5CCCN4CCN(C)CC4)cc3)CC2)cc1 [Compound 3532, (4-((2,3-dimethyl-1-(3-(4-methylpiperazin-1-yl)propyl)-1H-indol-5-yl)amino)phenyl)(4-(4-methoxyphenethyl)piperazin-1-yl)methanone] |
| 3.3 µM | 3.7 µM | 4.8 µM | 3.9 µM | 4.2 µM | 3.3 µM | 3.7 µM |  |  |  |  |  |  |  |  | Cc1c(C)n(CCCN2CCN(C)CC2)c2ccc(Nc3ccc(C(=O)N4CCN(CCc5ccc6c(c5)OCO6)CC4)cc3)cc12 [Compound 3533, (4-(2-(benzo[d][1,3]dioxol-5-yl)ethyl)piperazin-1-yl)(4-((2,3-dimethyl-1-(3-(4-methylpiperazin-1-yl)propyl)-1H-indol-5-yl)amino)phenyl)methanone] |
